Data published in patent US20240101540A1, “TARGETED PROTEIN DEGRADATION OF PARP14 FOR USE IN THERAPY” (Ribon Therapeutics, Inc., priority 2022, published 2024).
Structures can show the parent of a compound that is named as a salt.

Each compound was assayed against T1, catalytic domain of human PARP14 (residues 1611 to 1801) with NanoLuc tag (Homo sapiens, UniProt Q460N5) (assay: NanoLuc assay for the degradation of PARP14 (NanoLuc-tagged PARP14 overexpressed in HEK-293T cells, 2 hours)). Conditions: Assay A (Example A): NanoLuc-tagged PARP14 degradation in HEK-293T cells, read-out: DC50.
T1 construct: expressed in transfected cells; host or cells: HEK-293T cells (ATCC), pcDNA3.1(-) vector
T1 sequence (Q460N5 1611-1801): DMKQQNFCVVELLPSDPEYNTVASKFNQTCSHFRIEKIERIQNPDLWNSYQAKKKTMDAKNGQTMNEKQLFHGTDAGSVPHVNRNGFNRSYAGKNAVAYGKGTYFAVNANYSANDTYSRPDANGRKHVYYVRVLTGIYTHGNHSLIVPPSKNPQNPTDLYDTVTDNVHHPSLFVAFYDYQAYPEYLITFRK
Type: cell-based
Protocol: The insert also contained a NanoLuc tag on the N terminus of the PARP14 protein.
Degradation of PARP14 protein was assessed using measurement of the NanoLuc tag as proxy for the PARP14 protein. […] Plasmid DNA was diluted in empty vector DNA then added to 1.163 mL of phenol red free OptiMEM (Thermo Fisher). Plasmid DNA concentrations used in each assay described in Table 1. The plasmid DNA was mixed with 78.5 μL of Fugene HD (Promega) and allowed to incubate 5 minutes.
The transfection was incubated for 24 hrs at 37 degrees in an incubator supplemented with 5% CO2. The cells were then trypsinized and brought up in phenol red free OptiMEM media. […] 40 nL of a dose response curve diluted in DMSO of each test compound was added to the cell plate using a Mosquito (TTP Labtech) and the plate was incubated at 37° C. for 2 hours. Assay plate was brought to room temperature then 20 μL per well of NanoGlo (Promega) was added to the plate. Luminescence was measured on an Envision (Perkin Elmer).
The average DMSO was calculated from 32 wells containing 0.1% DMSO only in columns 12 and 24 of the assay plate. The % of DMSO values were calculated as described below: […]
The % of DMSO values were plotted as a function of compound concentration and the following 4-parameter fit was applied to derive the DC50 values:
where top, bottom, and Hill Coefficient are allowed to float. Y is the % of DMSO and X is the compound concentration
DC50 data for the Example compounds is provided below in Table 2 (“+” is <0.1 μM; “++” is ≥0.1 μM and <1 μM; and “+++” is ≥1 μM).

DC50, < 100 nM:
Cn1nc(N2CCC(=O)NC2=O)c2ccc(C3CCN(CCN4CCC(COc5cc(F)c6c(=O)[nH]c(CSC7CCOCC7)nc6c5)CC4)CC3)cc21 [Example 74, 1-(6-(1-(2-(4-(((5-fluoro-4-oxo-2-(((tetrahydro-2H-pyran-4-yl)thio)methyl)-3,4-dihydroquinazolin-7-yl)oxy)methyl)piperidin-1-yl)ethyl)piperidin-4-yl)-1-methyl-1H-indazol-3-yl)dihydropyrimidine-2,4(1H,3H)-dione]
O=C1CCC(N2C(=O)c3cccc(N4CCN(CCN5CCC(COc6cc(F)c7c(=O)[nH]c(CSC8CCOCC8)nc7c6)CC5)CC4)c3C2=O)C(=O)N1 (stereo not drawn) [Example 61, 2-(2,6-dioxopiperidin-3-yl)-4-(4-(2-(4-(((5-fluoro-4-oxo-2-(((tetrahydro-2H-pyran-4-yl)thio)methyl)-3,4-dihydroquinazolin-7-yl)oxy)methyl)piperidin-1-yl)ethyl)piperazin-1-yl)isoindoline-1,3-dione]
O=C1CCC(N2C(=O)c3ccc(N4CCC(N5CCN(Cc6cc(F)c7c(=O)[nH]c(CSC8CCOCC8)nc7c6)CC5)CC4)cc3C2=O)C(=O)N1 (stereo not drawn) [Example 85, 2-(2,6-dioxopiperidin-3-yl)-5-(4-(4-((5-fluoro-4-oxo-2-(((tetrahydro-2H-pyran-4-yl)thio)methyl)-3,4-dihydroquinazolin-7-yl)methyl)piperazin-1-yl)piperidin-1-yl)isoindoline-1,3-dione]
O=C1CCC(N2C(=O)c3ccc(OC4CC(CN5CCC(COc6cc(F)c7c(=O)[nH]c(CSC8CCOCC8)nc7c6)CC5)C4)cc3C2=O)C(=O)N1 (stereo not drawn) [Example 79a, 2-(2,6-dioxopiperidin-3-yl)-5-((1r,3r)-3-((4-(((5-fluoro-4-oxo-2-(((tetrahydro-2H-pyran-4-yl)thio)methyl)-3,4-dihydroquinazolin-7-yl)oxy)methyl)piperidin-1-yl)methyl)cyclobutoxy)isoindoline-1,3-dione]
O=C1CCC(N2Cc3c(cccc3N3CCN(CCN4CCC(COc5cc(F)c6c(=O)[nH]c(CSC7CCOCC7)nc6c5)CC4)CC3)C2=O)C(=O)N1 (stereo not drawn) [Example 60, 3-(4-(4-(2-(4-(((5-fluoro-4-oxo-2-(((tetrahydro-2H-pyran-4-yl)thio)methyl)-3,4-dihydroquinazolin-7-yl)oxy)methyl)piperidin-1-yl)ethyl)piperazin-1-yl)-1-oxoisoindolin-2-yl)piperidine-2,6-dione]
O=C1CCC(N2C(=O)c3cccc(NCCC(=O)N4CCC(COc5cc(F)c6c(=O)[nH]c(CSC7CCOCC7)nc6c5)CC4)c3C2=O)C(=O)N1 (stereo not drawn) [Example 5, 2-(2,6-dioxopiperidin-3-yl)-4-((3-(4-(((5-fluoro-4-oxo-2-(((tetrahydro-2H-pyran-4-yl)thio)methyl)-3,4-dihydroquinazolin-7-yl)oxy)methyl)piperidin-1-yl)-3-oxopropyl)amino)isoindoline-1,3-dione]
O=C1CCC(Nc2ccc(NC3CCN(CCN4CCC(COc5cc(F)c6c(=O)[nH]c(CSC7CCOCC7)nc6c5)CC4)CC3)cc2)C(=O)N1 (stereo not drawn) [Example 94, 3-((4-((1-(2-(4-(((5-fluoro-4-oxo-2-(((tetrahydro-2H-pyran-4-yl)thio)methyl)-3,4-dihydroquinazolin-7-yl)oxy)methyl)piperidin-1-yl)ethyl)piperidin-4-yl)amino)phenyl)amino)piperidine-2,6-dione]
O=C1CCN(c2ccc(C3CCN(CC4CCN(C(=O)CN5CCC(COc6cc(F)c7c(=O)[nH]c(CSC8CCOCC8)nc7c6)CC5)CC4)CC3)cc2)C(=O)N1 [Example 19, 1-(4-(1-((1-(2-(4-(((5-fluoro-4-oxo-2-(((tetrahydro-2H-pyran-4-yl)thio)methyl)-3,4-dihydroquinazolin-7-yl)oxy)methyl)piperidin-1-yl)acetyl)piperidin-4-yl)methyl)piperidin-4-yl)phenyl)dihydropyrimidine-2,4(1H,3H)-dione]
O=C1CCN(c2ccc(C#CCN3CCC(COc4cc(F)c5c(=O)[nH]c(CSC6CCOCC6)nc5c4)CC3)cc2)C(=O)N1 [Example 32, 1-(4-(3-(4-(((5-fluoro-4-oxo-2-(((tetrahydro-2H-pyran-4-yl)thio)methyl)-3,4-dihydroquinazolin-7-yl)oxy)methyl)piperidin-1-yl)prop-1-yn-1-yl)phenyl)dihydropyrimidine-2,4(1H,3H)-dione]
O=C1CCC(N2C(=O)c3cccc(N4CCN(CC5CCN(C(=O)CN6CCC(COc7cc(F)c8c(=O)[nH]c(CSC9CCOCC9)nc8c7)CC6)CC5)CC4)c3C2=O)C(=O)N1 (stereo not drawn) [Example 21, 2-(2,6-dioxopiperidin-3-yl)-4-(4-((1-(2-(4-(((5-fluoro-4-oxo-2-(((tetrahydro-2H-pyran-4-yl)thio)methyl)-3,4-dihydroquinazolin-7-yl)oxy)methyl)piperidin-1-yl)acetyl)piperidin-4-yl)methyl)piperazin-1-yl)isoindoline-1,3-dione]
CN(c1ccc(NC2CCC(=O)NC2=O)cc1)C1CCN(CCN2CCC(COc3cc(F)c4c(=O)[nH]c(CSC5CCOCC5)nc4c3)CC2)CC1 (stereo not drawn) [Example 123]
O=C1CCC(Nc2ccc(N3CCC(N4CCC(COc5cc(F)c6c(=O)[nH]c(CSC7CCN(CC(F)(F)F)CC7)nc6c5)CC4)CC3)cc2)C(=O)N1 (stereo not drawn) [Example 89, 3-((4-(4-(((5-fluoro-4-oxo-2-(((1-(2,2,2-trifluoroethyl)piperidin-4-yl)thio)methyl)-3,4-dihydroquinazolin-7-yl)oxy)methyl)-[1,4′-bipiperidin]-1′-yl)phenyl)amino)piperidine-2,6-dione]
O=C1CC[C@@H](Nc2ccc(N3CCN(CCN4CCC(COc5cc(F)c6c(=O)[nH]c(CSC7CCOCC7)nc6c5)CC4)CC3)cc2)C(=O)N1 (single isomer, unassigned) [Example 48b]
O=C1CCC(N2Cc3c(C#CCN4CCC(COc5cc(F)c6c(=O)[nH]c(CSC7CCOCC7)nc6c5)CC4)cccc3C2=O)C(=O)N1 (stereo not drawn) [Example 30, 3-(4-(3-(4-(((5-fluoro-4-oxo-2-(((tetrahydro-2H-pyran-4-yl)thio)methyl)-3,4-dihydroquinazolin-7-yl)oxy)methyl)piperidin-1-yl)prop-1-yn-1-yl)-1-oxoisoindolin-2-yl)piperidine-2,6-dione]
O=C1CCC(N2C(=O)c3ccc(N4CC(CN5CCC(COc6cc(F)c7c(=O)[nH]c(CSC8CCOCC8)nc7c6)CC5)C4)cc3C2=O)C(=O)N1 (stereo not drawn) [Example 36, 2-(2,6-dioxopiperidin-3-yl)-5-(3-((4-(((5-fluoro-4-oxo-2-(((tetrahydro-2H-pyran-4-yl)thio)methyl)-3,4-dihydroquinazolin-7-yl)oxy)methyl)piperidin-1-yl)methyl)azetidin-1-yl)isoindoline-1,3-dione]
O=C1CCC(Nc2ccc(OC3CC(CN4CCC(COc5cc(F)c6c(=O)[nH]c(CS[C@H]7CC[C@H](O)CC7)nc6c5)CC4)C3)cc2)C(=O)N1 (stereo partly drawn) [Example 90, 3-((4-(3-((4-(((5-fluoro-2-((((1r,4r)-4-hydroxycyclohexyl)thio)methyl)-4-oxo-3,4-dihydroquinazolin-7-yl)oxy)methyl)piperidin-1-yl)methyl)cyclobutoxy)phenyl)amino)piperidine-2,6-dione formate]
O=C(CN1CCC(COc2cc(F)c3c(=O)[nH]c(CSC4CCOCC4)nc3c2)CC1)NCCCCCCCCNc1cccc2c1C(=O)N(C1CCC(=O)NC1=O)C2=O (stereo not drawn) [Example 3, N-(8-((2-(2,6-dioxopiperidin-3-yl)-1,3-dioxoisoindolin-4-yl)amino)octyl)-2-(4-(((5-fluoro-4-oxo-2-(((tetrahydro-2H-pyran-4-yl)thio)methyl)-3,4-dihydroquinazolin-7-yl)oxy)methyl)piperidin-1-yl)acetamide]
CN1CCC(SCc2nc3cc(OCC4CCN(c5ccc6c(c5)C(=O)N(C5CCC(=O)NC5=O)C6=O)CC4)cc(F)c3c(=O)[nH]2)CC1 (stereo not drawn) [Example 44, 2-(2,6-dioxopiperidin-3-yl)-5-(4-(((5-fluoro-2-(((1-methylpiperidin-4-yl)thio)methyl)-4-oxo-3,4-dihydroquinazolin-7-yl)oxy)methyl)piperidin-1-yl)isoindoline-1,3-dione]
